Measured values reported in patent US7560458B2, “Triazolopyrimidine derivatives as glycogen synthase kinase 3 inhibitors” (Janssen Pharmaceutica, N.V., priority 2003, dated 2009).

Tests used:
GSK3β = GSK3β (Homo sapiens, UniProt P49841); experiment: GSK3beta assay (SPA, biotinylated phosphorylated CREB peptide, ATP-P33); format: biochemical; conditions: −log IC50 (M); given as ranges (>8; 7-8; <7); read-out: pIC50 (GSK3beta) (converted)
Protocol: (§1) GSK3beta assays were performed at room temperature in a 100 μl reaction volume of 25 mM Tris (ph 7.4) containing 10 mM MgCl2.6H2O 1 mM DTT, 0.1 mg/ml BSA, 5% glyceol and containing 5.7 ng/μl GSK3β, 5 μM biotinylated phosphorylated CREB peptide, 1 μM APT, 0.85 μCi/ml ATP-P^33 and a suitable amount of a test compound of formula (I). After one hour, the reaction was terminated by adding 70 μl of Stop mix (0.1 mM APT, 5 mg/ml streptavidin coated PVT SPA bead pH 11.0). The beads to which the phosphorylated CREB peptide is attached were allowed to settle overnight and the radioactivity of the beads was counted in a microtiterplate scintillation counter and compared with the results obtained in a control experiment (without the presence of a test compound) in order to determine the percentage of GSK3β inhibition. The IC50 value, i.e. the concentration (M) of the test compound at which 50% of GSK3β is inhibited, was calculated from the dose response curve obtained by performing the above-described GSKK3β assay in the presence of different amounts of the test compound.

GSK3alpha = GSK3alpha (Homo sapiens, UniProt P49840); experiment: GSK3alpha assay (same as the GSK3beta assay, GSK3alpha 0.25 ng/μl); format: biochemical; conditions: −log IC50 (M); given as ranges (>8; 7-8; <7); read-out: pIC50 (GSK3alpha) (converted)
GSK3alpha, sequence (P49840 whole entry, species assumed): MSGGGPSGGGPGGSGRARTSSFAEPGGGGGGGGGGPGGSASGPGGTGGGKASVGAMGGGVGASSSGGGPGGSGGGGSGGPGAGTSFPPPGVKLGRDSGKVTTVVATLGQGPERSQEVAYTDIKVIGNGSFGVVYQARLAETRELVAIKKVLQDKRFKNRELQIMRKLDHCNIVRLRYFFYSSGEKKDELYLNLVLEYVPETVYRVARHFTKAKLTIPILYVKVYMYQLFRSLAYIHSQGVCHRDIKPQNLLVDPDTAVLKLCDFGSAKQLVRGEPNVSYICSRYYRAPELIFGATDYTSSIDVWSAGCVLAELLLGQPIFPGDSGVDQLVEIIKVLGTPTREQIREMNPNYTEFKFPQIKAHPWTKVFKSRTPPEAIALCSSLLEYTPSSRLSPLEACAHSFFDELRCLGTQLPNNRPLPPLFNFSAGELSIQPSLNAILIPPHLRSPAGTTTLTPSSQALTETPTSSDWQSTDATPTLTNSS
Protocol: as §1
The GSK3alpha assay was performed in the same way as described above for the GSK3beta assay except for the concentration of GSK3alpha which is 0.25 ng/μl.

GSK3β, sequence (P49841 whole entry, species assumed): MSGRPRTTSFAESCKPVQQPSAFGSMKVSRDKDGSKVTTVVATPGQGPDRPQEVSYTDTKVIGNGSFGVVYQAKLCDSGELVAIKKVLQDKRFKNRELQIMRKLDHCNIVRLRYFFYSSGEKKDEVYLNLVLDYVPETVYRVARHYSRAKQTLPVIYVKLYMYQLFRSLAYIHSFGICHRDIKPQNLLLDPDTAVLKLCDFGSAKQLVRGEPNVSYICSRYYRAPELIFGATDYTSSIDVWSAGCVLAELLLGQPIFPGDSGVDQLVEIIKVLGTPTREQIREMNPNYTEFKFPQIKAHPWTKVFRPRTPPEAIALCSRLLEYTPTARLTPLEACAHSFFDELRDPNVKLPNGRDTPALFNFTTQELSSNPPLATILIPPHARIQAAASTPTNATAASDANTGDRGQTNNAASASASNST

IC50 (GSK3β) [M]	IC50 (GSK3alpha) [M]	SMILES
< 1e-08	< 1e-08	CNS(=O)(=O)c1cccc(Nc2ncc3nnn(-c4cccc(CNC(C)=O)c4)c3n2)c1 [Compound 140]
< 1e-08	< 1e-08	CC(C)CC(=O)NCc1cccc(-n2nnc3cnc(Nc4ccc(C(N)=O)cc4)nc32)c1 [Compound 191]
1e-08 to 1e-07	1e-08 to 1e-07	NCCc1ccc(Nc2ncc3nnn(-c4cccc(F)c4)c3n2)cc1 [Compound 321]
< 1e-08	< 1e-08	N#Cc1cccc(Nc2ncc3nnn(-c4ccccc4)c3n2)c1 [Compound 34]
1e-08 to 1e-07	1e-08 to 1e-07	CN(C)CCOc1ccc(Nc2ncc3nnn(-c4cccc(F)c4)c3n2)cc1 [Compound 296]
< 1e-08	< 1e-08	COc1cccc(-n2nnc3cnc(Nc4cccc(NS(C)(=O)=O)c4)nc32)c1 [Compound 52]
< 1e-08	< 1e-08	OCCc1cccc(Nc2ncc3nnn(-c4cccc(F)c4)c3n2)c1 [Compound 150]
> 1e-09	< 1e-08	COCCNS(=O)(=O)c1cccc(Nc2ncc3nnn(-c4cccc(F)c4)c3n2)c1 [Compound 103]
< 1e-08	< 1e-08	COc1ccc(Nc2ncc3nnn(-c4ccccc4)c3n2)cn1 [Compound 47]
1e-08 to 1e-07	1e-08 to 1e-07	CS(=O)(=O)Nc1cccc(Nc2ncc3nnn(-c4cccc(CC(=O)O)c4)c3n2)c1 [Compound 180]
1e-08 to 1e-07	1e-08 to 1e-07	COc1ccc(Nc2ncc3nnn(-c4cccc(CNC(=O)C5CC5)c4)c3n2)cn1 [Compound 209]
< 1e-08	< 1e-08	COCCOCc1cccc(-n2nnc3cnc(Nc4ccc(C(=O)N(C)C)cc4)nc32)c1 [Compound 328]
< 1e-08	< 1e-08	CN(C)C(=O)c1cccc(Nc2ncc3nnn(-c4cccc(F)c4)c3n2)c1 [Compound 100]
1e-08 to 1e-07	1e-08 to 1e-07	COCc1cccc(-n2nnc3cnc(Nc4cccc(S(=O)(=O)NCCNC(C)=O)c4)nc32)c1 [Compound 154]
< 1e-08	< 1e-08	COC(=O)c1cc(Nc2ncc3nnn(-c4cccc(CC#N)c4)c3n2)ccc1NC(C)=O [Compound 269]
< 1e-08	< 1e-08	COCc1cccc(-n2nnc3cnc(Nc4ccc(C(=O)O)c(C)c4)nc32)c1 [Compound 249]
1e-08 to 1e-07	< 1e-08	N#CCc1ccc(Nc2ncc3nnn(-c4cccc(F)c4)c3n2)cc1 [Compound 20]
< 1e-08	< 1e-08	CC(C)CC(=O)NCc1cccc(-n2nnc3cnc(Nc4ccc(C(=O)NCC(=O)O)cc4)nc32)c1 [Compound 192]
> 1e-07	< 1e-08	OCCc1ccc(Nc2ncc3nnn(-c4ccc(CCO)cc4)c3n2)cc1 [Compound 293]
< 1e-08	< 1e-08	N#CCc1cccc(-n2nnc3cnc(Nc4cccc(CO)c4)nc32)c1 [Compound 277]
1e-08 to 1e-07	< 1e-08	O=C(O)c1cc(Nc2ncc3nnn(-c4cccc(F)c4)c3n2)ccc1O [Compound 71]
< 1e-08	< 1e-08	COc1cccc(-n2nnc3cnc(Nc4cccc(C(C)=O)c4)nc32)c1 [Compound 51]

IC50 (GSK3β) [M]	IC50 (GSK3alpha) [M]	SMILES
< 1e-08	< 1e-08	CCOc1cccc(Nc2ncc3nnn(-c4cccc(F)c4)c3n2)c1 [Compound 23]
< 1e-08	< 1e-08	COCc1cccc(-n2nnc3cnc(Nc4ccc(C(=O)O)c(Cl)c4)nc32)c1 [Compound 138]
< 1e-08	< 1e-08	N#Cc1ccc(Nc2ncc3nnn(-c4cccc(CCO)c4)c3n2)cc1 [Compound 285]
1e-08 to 1e-07	< 1e-08	NS(=O)(=O)c1ccc(Nc2ncc3nnn(-c4cccc(C(=O)NCCO)c4)c3n2)cc1 [Compound 227]
< 1e-08	< 1e-08	COCc1cccc(-n2nnc3cnc(Nc4ccc(CN)cc4)nc32)c1 [Compound 315]
< 1e-08	< 1e-08	OCc1cccc(Nc2ncc3nnn(-c4cccc(F)c4)c3n2)c1 [Compound 31]
< 1e-08	< 1e-08	CSc1cccc(Nc2ncc3nnn(-c4cccc(F)c4)c3n2)c1 [Compound 122]
< 1e-08	< 1e-08	COCCOCc1cccc(-n2nnc3cnc(Nc4ccc(C(N)=O)cc4)nc32)c1 [Compound 286]
< 1e-08	< 1e-08	N#Cc1ccc(Nc2ncc3nnn(-c4cccc(C(=O)NCCO)c4)c3n2)cc1 [Compound 229]
< 1e-08	< 1e-08	NS(=O)(=O)c1ccc(Nc2ncc3nnn(-c4cccc(CNC(=O)C5CC5)c4)c3n2)cc1 [Compound 210]
1e-08 to 1e-07	< 1e-08	O=C(O)c1ccc(Nc2ncc3nnn(-c4cccc(C(=O)NCCO)c4)c3n2)cc1 [Compound 247]
< 1e-08	< 1e-08	COCc1cccc(Nc2ncc3nnn(-c4cccc(CCO)c4)c3n2)c1 [Compound 168]
1e-08 to 1e-07	1e-08 to 1e-07	NCc1cccc(-n2nnc3cnc(Nc4ccc(F)cc4)nc32)c1 [Compound 279]
< 1e-08	< 1e-08	CC(=O)NCc1cccc(Nc2ncc3nnn(-c4cccc(F)c4)c3n2)c1 [Compound 73]
< 1e-08	< 1e-08	O=C(O)c1ccc(Nc2ncc3nnn(-c4cccc(F)c4)c3n2)cc1Cl [Compound 137]
< 1e-08	< 1e-08	O=C(O)c1ccc(Nc2ncc3nnn(-c4cccc(CNC(=O)C5CC5)c4)c3n2)cc1 [Compound 206]
< 1e-08	< 1e-08	COCc1cccc(-n2nnc3cnc(Nc4ccc(Cl)cc4)nc32)c1 [Compound 338]
1e-08 to 1e-07	1e-08 to 1e-07	CNC(=O)c1ccc(Nc2ncc3nnn(-c4cccc(CC#N)c4)c3n2)cc1 [Compound 331]
< 1e-08	< 1e-08	Fc1cccc(-n2nnc3cnc(Nc4ccc(Cl)nc4)nc32)c1 [Compound 32]
1e-08 to 1e-07	1e-08 to 1e-07	COCCOc1cccc(-n2nnc3cnc(Nc4ccc(CCN)cc4)nc32)c1 [Compound 319]
1e-08 to 1e-07	< 1e-08	CCOc1ccc(Nc2ncc3nnn(-c4ccccc4)c3n2)cn1 [Compound 82]
< 1e-08	< 1e-08	CNC(=O)c1cccc(Nc2ncc3nnn(-c4cccc(F)c4)c3n2)c1 [Compound 24]

IC50 (GSK3β) [M]	IC50 (GSK3alpha) [M]	SMILES
< 1e-08	< 1e-08	COc1cc(Nc2ncc3nnn(-c4cccc(CCO)c4)c3n2)ccc1F [Compound 171]
1e-08 to 1e-07	< 1e-08	COCCOc1cccc(-n2nnc3cnc(Nc4ccc(CNCC(F)(F)F)cc4)nc32)c1 [Compound 312]
1e-08 to 1e-07	< 1e-08	COCCOc1cccc(-n2nnc3cnc(Nc4ccc(CNC(=O)OC(C)(C)C)cc4)nc32)c1 [Compound 302]
< 1e-08	< 1e-08	COCC(=O)NCc1cccc(-n2nnc3cnc(Nc4ccc(NC(C)=O)c(C(=O)OC)c4)nc32)c1 [Compound 157]
< 1e-08	< 1e-08	OCCc1ccc(Nc2ncc3nnn(-c4cccc(F)c4)c3n2)cc1 [Compound 147]
< 1e-08	< 1e-08	CS(=O)(=O)c1cccc(Nc2ncc3nnn(-c4cccc(F)c4)c3n2)c1 [Compound 44]
< 1e-08	< 1e-08	COCC(=O)NCc1cccc(-n2nnc3cnc(Nc4cccc(C#N)c4)nc32)c1 [Compound 175]
1e-08 to 1e-07	1e-08 to 1e-07	CC(=O)NCc1cccc(-n2nnc3cnc(Nc4cccc(S(=O)(=O)NCCO)c4)nc32)c1 [Compound 131]
1e-08 to 1e-07	< 1e-08	COCC(=O)NCc1cccc(-n2nnc3cnc(Nc4ccc(C(=O)O)cc4)nc32)c1 [Compound 155]
< 1e-08	< 1e-08	COc1cccc(-n2nnc3cnc(Nc4cccc(NC(C)=O)c4)nc32)c1 [Compound 42]
< 1e-08	< 1e-08	CC(=O)NCc1cccc(Nc2ncc3nnn(-c4cccc(CCO)c4)c3n2)c1 [Compound 167]
< 1e-08	1e-08 to 1e-07	Nc1cccc(Nc2ncc3nnn(-c4cccc(F)c4)c3n2)c1 [Compound 12]
< 1e-08	< 1e-08	NC(=O)Cc1cccc(-n2nnc3cnc(Nc4cccc(C(=O)NCCO)c4)nc32)c1 [Compound 271]
< 1e-08	< 1e-08	COCc1cccc(-n2nnc3cnc(Nc4ccc(OC)nc4)nc32)c1 [Compound 133]
1e-08 to 1e-07	1e-08 to 1e-07	COc1cccc(-n2nnc3cnc(Nc4cccc(C(=O)O)c4)nc32)c1 [Compound 66]
< 1e-08	< 1e-08	O=C(NCc1cccc(-n2nnc3cnc(Nc4ccc(CCO)cc4)nc32)c1)C1CC1 [Compound 208]
< 1e-08	< 1e-08	N#Cc1cccc(Nc2ncc3nnn(-c4cccc(CCO)c4)c3n2)c1 [Compound 258]
< 1e-08	< 1e-08	CCOC(=O)NCc1cccc(-n2nnc3cnc(Nc4cccc(C#N)c4)nc32)c1 [Compound 214]
< 1e-08	< 1e-08	OCCc1cccc(-n2nnc3cnc(Nc4ccc(F)cc4)nc32)c1 [Compound 261]
< 1e-08	< 1e-08	N#CCc1cccc(-n2nnc3cnc(Nc4ccc(CN)cc4)nc32)c1 [Compound 313]
